# Assay results published in US4517004A, “Aryl phosphoric triamide and aryl phosphorodiamidate urease and nitrification inhibitors and urease and nitrification inhibited urea and reduced nitrogen based fertilizer compositions” (Allied Corporation, priority 1983, dated 1985).
# Where two headings read alike, the source gives them in different places.
# Key:
# [1] = target: T1, jack bean urease (Sigma, Type IX) (Canavalia ensiformis, UniProt P07374); experiment: Efficacy test with commercial purified jack bean urease in homogeneous solution (modified Bremner procedure); type: biochemical; conditions: read-out: % Inhibition 10^-6 M
# T1 construct: purchased Sigma Type IX
# Experimental: Efficacy tests were also conducted with jack bean urease. The procedure of Bremner (see L. A. Douglas, J. M. Bremner, Soil Biol. Biochem., 3, 859-62 (1970 and references therein) was modified by replacing the soil as the source of urease with commercial purified jack bean urease (Sigma, Type IX). The incubation then proceeds in homogeneous solution. The results are generally parallel to those obtained in the soil test of Example IV and are given in Table II.
# [2] = test system: urease in soil (Cazenovia silt loam; Plano silt loam); experiment: Urease inhibition efficacy test in soil (urea remaining after incubation); type: biochemical; conditions: 40 micrograms compound per gram soil, 42.8 mg urea per 20 g soil, incubated 3 days at 25° C., triplicate; for % Inhibition 40 Micrograms per gram soil, Cazenovia pH 7.2: New York soil (Cazenovia silt loam)
# Experimental: Efficacy tests were conducted to evaluate the efficacy of certain representative phosphoric triamide compounds of this invention as urease inhibitors in comparison with the known compound 4-aminophenylphosphoric triamide. The inhibition tests were run in a New York soil (Cazenovia silt loam, pH 7.0), or in Wisconsin soil (Plano silt loam). Evaluations (run in triplicate) consisted of applying 800 micrograms of the test compound in 5 mL of water and 42.8 mg of urea in 1 mL of water to 20 g of air-dry soil in a glass bottle. The bottle was capped with perforated aluminum foil and incubated at 25° C. for three days prior to extraction with 100 mL of a 2M KCl solution containing 0.5 mg of phenylmercuric acetate. The extracts were then analyzed for remaining urea using an autoanalyzer. Percent inhibition was calculated as [formula] where A is urea recovered from unincubated sample (urea added to soil and immediately extracted); B is urea recovered from inhibited sample; and C is urea recovered from the control (uninhibited sample).
# [3] = test system: soil nitrification; experiment: Nitrification inhibition efficacy test in Cazenovia silt loam soil (nitrate formed from diammonium phosphate); conditions: Cazenovia silt loam pH 7.3
# Experimental: Efficacy tests were conducted to evaluate the efficacy of certain representative phosphoric triamide compounds as nitrification inhibitors. All compounds were evaluated in Cazenovia silt loam soil (pH 7.3). The evaluations consisted of applying either simultaneously (to) or after 14 days (t14) a solution of 6.00 mg (300 μg/g soil) at diammonium phosphate in 1 mL of water to triplicate 20 g samples of air dry soil contained in 250 mL square glass bottles that had been treated with a solution of either 0 or 0.800 mg (40 μg/g soil) of the test compound in 5 mL of water. Each bottle was capped with perforated aluminum foil, incubated for 14 days at 25° C. after diammonium phosphate application, and then extracted with 100 mL of 2M potassium chloride containing 0.5 mg (5 mg/L) of phenylmercuric acetate. Each extract was allowed to settle, and an aliquot was frozen and then analyzed for nitrate using an autoanalyzer. The percent inhibition obtained during the incubation was calculated by the formula: [formula] where A is the nitrate recovered from unincubated soil before diammonium phosphate addition; B is nitrate recovered from uninhibited soil; and C is nitrate recovered from inhibited soil.
# [4] = compound at 10^-6 M, purified jack bean urease, homogeneous solution
# T1 sequence (P07374 whole entry, looked up): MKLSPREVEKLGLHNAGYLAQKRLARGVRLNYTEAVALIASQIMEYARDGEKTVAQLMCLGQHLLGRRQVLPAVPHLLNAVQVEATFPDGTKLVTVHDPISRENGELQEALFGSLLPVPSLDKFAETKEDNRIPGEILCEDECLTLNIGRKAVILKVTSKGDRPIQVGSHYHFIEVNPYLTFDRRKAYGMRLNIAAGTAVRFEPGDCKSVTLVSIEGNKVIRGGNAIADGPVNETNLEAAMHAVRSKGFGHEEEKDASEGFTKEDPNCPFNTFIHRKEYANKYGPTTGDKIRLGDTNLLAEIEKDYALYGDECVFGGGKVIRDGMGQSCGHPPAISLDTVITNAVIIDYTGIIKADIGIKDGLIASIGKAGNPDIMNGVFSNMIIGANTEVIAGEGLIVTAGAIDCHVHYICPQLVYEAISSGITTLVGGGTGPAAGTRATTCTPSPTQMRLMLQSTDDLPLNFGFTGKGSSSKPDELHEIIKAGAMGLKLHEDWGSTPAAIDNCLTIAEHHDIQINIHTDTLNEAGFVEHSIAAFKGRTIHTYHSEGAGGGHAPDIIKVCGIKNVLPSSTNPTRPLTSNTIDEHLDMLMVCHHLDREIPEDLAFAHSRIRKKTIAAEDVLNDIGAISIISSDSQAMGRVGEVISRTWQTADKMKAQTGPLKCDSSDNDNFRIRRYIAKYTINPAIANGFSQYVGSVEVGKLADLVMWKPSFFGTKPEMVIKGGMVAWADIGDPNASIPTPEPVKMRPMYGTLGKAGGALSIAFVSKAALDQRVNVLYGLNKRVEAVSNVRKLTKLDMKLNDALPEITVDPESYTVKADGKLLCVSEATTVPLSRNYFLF
Compound,"inhibition at 1 µM [1, 4] [%]","% Inhibition 40 Micrograms per gram soil, Cazenovia pH 7.2 [2] [%]","% Inhibition at 40 μg per gram of soil, t14 ([3]; diammonium phosphate (300 μg/g soil) applied 14 days after compound (t14), 14 days at 25° C. after application) [%]","% Inhibition at 40 μg per gram of soil, t0 ([3]; diammonium phosphate (300 μg/g soil) applied simultaneously with compound (t0), 14 days at 25° C.) [%]","% Inhibition 40 Micrograms per gram soil, Wisconsin pH 5.4 ([2]; Wisconsin soil (Plano silt loam), pH 5.4) [%]",inhibition at 1 µM [1] [%]
"CC(C)(C)c1cc(OP(N)(N)=O)ccc1O [Phosphorodiamidic Acid 3-(1',1'-dimethylethyl)-4-hydroxyphenyl Ester]",29,87,0,39,,
"Nc1ccc(OP(N)(N)=O)cc1 [4-Aminophenylphosphorodiamidate, 4-aminophenylphosphorodiamidate]",80,91,,,,
CN(c1ccc(O)cc1)P(N)(N)=O [N-(Methyl)-N-(4-hydroxyphenyl) Phosphoric triamide],,87,,,33,
"Nc1ccc(NP(N)(N)=O)cc1 [4-Aminophenylphosphoric triamide, 4-aminophenylphosphoric triamide, reference compound]",,55,,,,0
